Measured values from patent publication US20240218022A1, “ANTI-VISTA MACROCYCLIC PEPTIDES AND COMPOSITIONS” (BRISTOL-MYERS SQUIBB COMPANY, priority 2022, published 2024).
Read-outs that look alike come from different tables or passages of the source. Positions of bridges follow the written chain, without caps; N, C: chain ends. Non-standard residues stand in square brackets, D forms with d. Residues, ends and D or L forms follow the SMILES beside them. Phe(3,4,5-F3) = N[C@@H](Cc1cc(F)c(F)c(F)c1)C(=O)O; Phe(3,4-(OMe)2) = COc1ccc(C[C@H](N)C(=O)O)cc1OC; Phe(4-CF3) = N[C@@H](Cc1ccc(C(F)(F)F)cc1)C(=O)O; Trp(1-Me) = Cn1cc(C[C@H](N)C(=O)O)c2ccccc21; Phe(4-NH2) = Nc1ccc(C[C@H](N)C(=O)O)cc1; Phe(3-Me) = Cc1cccc(C[C@H](N)C(=O)O)c1; Phe(4-F) = N[C@@H](Cc1ccc(F)cc1)C(=O)O; 1Nal = N[C@@H](Cc1cccc2ccccc12)C(=O)O; 2Nal = N[C@@H](Cc1ccc2ccccc2c1)C(=O)O; Ahp(2) = CCCCC[C@H](N)C(=O)O; NMeNle = CCCC[C@H](NC)C(=O)O; NHexGly = CCCCCCNCC(=O)O; Nle = CCCC[C@H](N)C(=O)O

Target: T1, mouse VISTA (mVISTA) (Mus musculus, UniProt Q9D659)
T1 construct: expressed in transfected cells; host or cells: Human embryonic kidney 293T cells
T1 sequence (Q9D659 33-308): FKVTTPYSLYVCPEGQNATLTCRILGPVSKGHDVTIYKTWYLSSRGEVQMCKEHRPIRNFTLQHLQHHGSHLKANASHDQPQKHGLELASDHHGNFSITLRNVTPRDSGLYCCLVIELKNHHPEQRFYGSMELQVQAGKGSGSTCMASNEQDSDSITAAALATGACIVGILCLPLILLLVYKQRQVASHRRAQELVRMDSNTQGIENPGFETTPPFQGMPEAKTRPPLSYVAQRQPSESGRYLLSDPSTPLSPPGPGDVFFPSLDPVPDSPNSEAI
Test: Cell-Based Binding High-Content Assay For mVISTA (HC CBA mVISTA)
Conditions: read-out: HC CBA mVISTA IC50
Outline: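 mVISTA-293T, 4,000 cells/well; cpd ± washout step; biotin-peptide 2 nM final, 30 min RT; SA-Alexa 647 30 min; formaldehyde/Hoechst fix; HCS imaging; 4PL IC50.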

[1] = the 19th table, scaffold drawing 22
[2] = the 20th table, scaffold drawing 23

Row | Compound | IC50 [1] [nM] | IC50 [2] [nM]
1 | CCCCCCN1CC(=O)N[C@@H](Cc2ccc(O)cc2)C(=O)N[C@@H](CCCC)C(=O)N[C@@H](CC(N)=O)C(=O)N[C@@H](CCCNC(=N)N)C(=O)N(C)[C@@H](CCCC)C(=O)N[C@@H](CCCCC)C(=O)N2CCC[C@H]2C(=O)N[C@@H](C(C)C)C(=O)N[C@@H](CC(=O)O)C(=O)N[C@H](C(=O)NCC(=O)O)CSCC(=O)N[C@@H](Cc2cccc(C)c2)C(=O)N[C@@H](Cc2ccc(O)cc2)C(=O)N[C@@H](CC(=O)O)C1=O [compound 1450] ({CH2CO}-[Phe(3-Me)]YD[NHexGly]Y[Nle]NR[NMeNle][Ahp(2)]PVDCG-OH; thioether N-14) | 7 | 
2 | CCCCCCN1CC(=O)N[C@@H](Cc2ccc(O)cc2)C(=O)N[C@@H](CCCC)C(=O)N[C@@H](CC(=O)O)C(=O)N[C@@H](CCCNC(=N)N)C(=O)N(C)[C@@H](CCCC)C(=O)N[C@@H](CCCCC)C(=O)N2CCC[C@H]2C(=O)N[C@@H](C(C)C)C(=O)N[C@@H](CC(=O)O)C(=O)N[C@H](C(=O)N[C@@H](CO)C(N)=O)CSCC(=O)N[C@@H](Cc2cccc(C)c2)C(=O)N[C@@H](Cc2ccc(O)cc2)C(=O)N[C@@H](CC(=O)O)C1=O [compound 1451] ({CH2CO}-[Phe(3-Me)]YD[NHexGly]Y[Nle]DR[NMeNle][Ahp(2)]PVDCS-NH2; thioether N-14) | 8.6 | 
3 | CCCCCCN1CC(=O)N[C@@H](Cc2ccc(O)cc2)C(=O)N[C@@H](CCCC)C(=O)N[C@@H](CC(N)=O)C(=O)N[C@@H](CCCNC(=N)N)C(=O)N[C@@H](CC(C)C)C(=O)N[C@@H](CCCCC)C(=O)N2CCC[C@H]2C(=O)N[C@@H](C(C)C)C(=O)N[C@@H](CO)C(=O)N[C@H](C(=O)NCC(=O)O)CSCC(=O)N[C@@H](Cc2cccc3ccccc23)C(=O)N[C@@H](Cc2ccc(O)cc2)C(=O)N[C@@H](CC(=O)O)C1=O [compound 1452] ({CH2CO}-[1Nal]YD[NHexGly]Y[Nle]NRL[Ahp(2)]PVSCG-OH; thioether N-14) |  | 19.9
4 | CCCCCCN1CC(=O)N[C@@H](Cc2ccc(O)cc2)C(=O)N[C@@H](CCCC)C(=O)N[C@@H](CC(N)=O)C(=O)N[C@@H](CCCNC(=N)N)C(=O)N[C@@H](CC(C)C)C(=O)N[C@@H](CCCCC)C(=O)N2CCC[C@H]2C(=O)N[C@@H](C(C)C)C(=O)N[C@@H](CC(=O)O)C(=O)N[C@H](C(=O)NCC(=O)O)CSCC(=O)N[C@@H](Cc2ccc3ccccc3c2)C(=O)N[C@@H](Cc2cn(C)c3ccccc23)C(=O)N[C@@H](CC(=O)O)C1=O [compound 1454] ({CH2CO}-[2Nal][Trp(1-Me)]D[NHexGly]Y[Nle]NRL[Ahp(2)]PVDCG-OH; thioether N-14) |  | 3.6
5 | CCCCCCN1CC(=O)N[C@@H](Cc2ccc(O)cc2)C(=O)N[C@@H](CCCC)C(=O)N[C@@H](CC(N)=O)C(=O)N[C@@H](CCCNC(=N)N)C(=O)N[C@@H](CC(C)C)C(=O)N[C@@H](CCCCC)C(=O)N2CCC[C@H]2C(=O)N[C@@H](C(C)C)C(=O)N[C@@H](CC(=O)O)C(=O)N[C@H](C(=O)NCC(=O)O)CSCC(=O)N[C@@H](Cc2ccccc2)C(=O)N[C@@H](Cc2cn(C)c3ccccc23)C(=O)N[C@@H](CC(=O)O)C1=O [compound 1455] ({CH2CO}-F[Trp(1-Me)]D[NHexGly]Y[Nle]NRL[Ahp(2)]PVDCG-OH; thioether N-14) |  | 3.5
6 | CCCCCCN1CC(=O)N[C@@H](Cc2ccc(O)cc2)C(=O)N[C@@H](CCCC)C(=O)N[C@@H](CC(N)=O)C(=O)N[C@@H](CCCNC(=N)N)C(=O)N[C@@H](CC(C)C)C(=O)N[C@@H](CCCCC)C(=O)N2CCC[C@H]2C(=O)N[C@@H](C(C)C)C(=O)N[C@@H](CC(=O)O)C(=O)N[C@H](C(=O)NCC(=O)O)CSCC(=O)N[C@@H](Cc2cc(F)c(F)c(F)c2)C(=O)N[C@@H](Cc2c[nH]c3ccccc23)C(=O)N[C@@H](CC(=O)O)C1=O [compound 1456] ({CH2CO}-[Phe(3,4,5-F3)]WD[NHexGly]Y[Nle]NRL[Ahp(2)]PVDCG-OH; thioether N-14) |  | 17
7 | CCCCCCN1CC(=O)N[C@@H](Cc2ccc(O)cc2)C(=O)N[C@@H](CCCC)C(=O)N[C@@H](CC(N)=O)C(=O)N[C@@H](CCCNC(=N)N)C(=O)N[C@@H](CC(C)C)C(=O)N[C@@H](CCCCC)C(=O)N2CCC[C@H]2C(=O)N[C@@H](C(C)C)C(=O)N[C@@H](CC(=O)O)C(=O)N[C@H](C(=O)NCC(=O)O)CSCC(=O)N[C@@H](Cc2ccc(C(F)(F)F)cc2)C(=O)N[C@@H](Cc2c[nH]c3ccccc23)C(=O)N[C@@H](CC(=O)O)C1=O [compound 1459] ({CH2CO}-[Phe(4-CF3)]WD[NHexGly]Y[Nle]NRL[Ahp(2)]PVDCG-OH; thioether N-14) |  | 23.4
8 | CCCCCCN1CC(=O)N[C@@H](Cc2ccc(O)cc2)C(=O)N[C@@H](CCCC)C(=O)N[C@@H](CC(N)=O)C(=O)N[C@@H](CCCNC(=N)N)C(=O)N[C@@H](CC(C)C)C(=O)N[C@@H](CCCCC)C(=O)N2CCC[C@H]2C(=O)N[C@@H](C(C)C)C(=O)N[C@@H](CO)C(=O)N[C@H](C(=O)NCC(=O)O)CSCC(=O)N[C@@H](Cc2ccc(F)cc2)C(=O)N[C@@H](Cc2ccc(O)cc2)C(=O)N[C@@H](CC(=O)O)C1=O [compound 1462] ({CH2CO}-[Phe(4-F)]YD[NHexGly]Y[Nle]NRL[Ahp(2)]PVSCG-OH; thioether N-14) |  | 22.2
9 | CCCCCCN1CC(=O)N[C@@H](Cc2ccc(O)cc2)C(=O)N[C@@H](CCCC)C(=O)NCC(=O)N[C@@H](CCCNC(=N)N)C(=O)N[C@@H](CC(C)C)C(=O)N[C@@H](CCCCC)C(=O)N2CCC[C@H]2C(=O)N[C@@H](C(C)C)C(=O)N[C@@H](CC(=O)O)C(=O)N[C@H](C(=O)NCC(=O)O)CSCC(=O)N[C@@H](Cc2ccc(N)cc2)C(=O)N[C@@H](Cc2ccc(O)cc2)C(=O)N[C@@H](CC(=O)O)C1=O [compound 1464] ({CH2CO}-[Phe(4-NH2)]YD[NHexGly]Y[Nle]GRL[Ahp(2)]PVDCG-OH; thioether N-14) |  | 31.4
10 | CCCCCCN1CC(=O)N[C@@H](Cc2ccc(O)cc2)C(=O)N[C@@H](CCCC)C(=O)N[C@H](CC(N)=O)C(=O)N[C@@H](CCCNC(=N)N)C(=O)N[C@@H](CC(C)C)C(=O)N[C@@H](CCCCC)C(=O)N2CCC[C@H]2C(=O)N[C@@H](C(C)C)C(=O)N[C@@H](CO)C(=O)N[C@H](C(=O)NCC(=O)O)CSCC(=O)N[C@@H](Cc2c[nH]c3ccccc23)C(=O)N[C@@H](Cc2ccc(O)cc2)C(=O)N[C@@H](CC(=O)O)C1=O [compound 1471] ({CH2CO}-WYD[NHexGly]Y[Nle][dN]RL[Ahp(2)]PVSCG-OH; thioether N-14) |  | 32.9

Continued by falling IC50 [2], values first:

Row | IC50 [1] [nM] | IC50 [2] [nM] | Compound
11 |  | 33.8 | CCCCCCN1CC(=O)N[C@@H](Cc2ccc(O)cc2)C(=O)N[C@@H](CCCC)C(=O)NCC(=O)N[C@@H](CCCNC(=N)N)C(=O)N[C@@H](CC(C)C)C(=O)N[C@@H](CCCCC)C(=O)N2CCC[C@H]2C(=O)N[C@@H](C(C)C)C(=O)N[C@@H](CC(=O)O)C(=O)N[C@H](C(=O)NCC(=O)O)CSCC(=O)N[C@@H](Cc2ccc(OC)c(OC)c2)C(=O)N[C@@H](Cc2ccc(O)cc2)C(=O)N[C@@H](CC(=O)O)C1=O [compound 1458] ({CH2CO}-[Phe(3,4-(OMe)2)]YD[NHexGly]Y[Nle]GRL[Ahp(2)]PVDCG-OH; thioether N-14)
12 |  | 15.5 | CCCCCCN1CC(=O)N[C@@H](Cc2ccc(O)cc2)C(=O)N[C@@H](CCCC)C(=O)NCC(=O)N[C@@H](CCCNC(=N)N)C(=O)N[C@@H](CC(C)C)C(=O)N[C@@H](CCCCC)C(=O)N2CCC[C@H]2C(=O)N[C@@H](C(C)C)C(=O)N[C@@H](CC(=O)O)C(=O)N[C@H](C(=O)NCC(=O)O)CSCC(=O)N[C@@H](Cc2ccc(O)cc2)C(=O)N[C@@H](Cc2ccccc2)C(=O)N[C@@H](CC(=O)O)C1=O [compound 1472] ({CH2CO}-YFD[NHexGly]Y[Nle]GRL[Ahp(2)]PVDCG-OH; thioether N-14)
13 |  | 11.6 | CCCCCCN1CC(=O)N[C@@H](Cc2ccc(O)cc2)C(=O)N[C@@H](CCCC)C(=O)N[C@@H](CC(N)=O)C(=O)N[C@@H](CCCNC(=N)N)C(=O)N[C@@H](CC(C)C)C(=O)N[C@@H](CCCCC)C(=O)N2CCC[C@H]2C(=O)N[C@@H](C(C)C)C(=O)N[C@@H](CC(=O)O)C(=O)N[C@H](C(=O)NCC(=O)O)CSCC(=O)N[C@@H](Cc2cc(F)c(F)c(F)c2)C(=O)N[C@@H](Cc2ccc(O)cc2)C(=O)N[C@@H](CC(=O)O)C1=O [compound 1457] ({CH2CO}-[Phe(3,4,5-F3)]YD[NHexGly]Y[Nle]NRL[Ahp(2)]PVDCG-OH; thioether N-14)
14 |  | 8.7 | CCCCCCN1CC(=O)N[C@@H](Cc2ccc(O)cc2)C(=O)N[C@@H](CC(C)C)C(=O)N[C@@H](CC(N)=O)C(=O)N[C@@H](CCCNC(=N)N)C(=O)N[C@@H](CC(C)C)C(=O)N[C@@H](CCCCC)C(=O)N2CCC[C@H]2C(=O)N[C@@H](C(C)C)C(=O)N[C@@H](C(C)C)C(=O)N[C@H](C(=O)NCC(=O)O)CSCC(=O)N[C@@H](Cc2ccc(C(F)(F)F)cc2)C(=O)N[C@@H](Cc2c[nH]c3ccccc23)C(=O)N[C@@H](CC(=O)O)C1=O [compound 1460] ({CH2CO}-[Phe(4-CF3)]WD[NHexGly]YLNRL[Ahp(2)]PVVCG-OH; thioether N-14)
15 |  | 5 | CCCCCCN1CC(=O)N[C@@H](Cc2ccc(O)cc2)C(=O)N[C@@H](CCCC)C(=O)N[C@@H](CC(N)=O)C(=O)N[C@@H](CCCNC(=N)N)C(=O)N[C@@H](CC(C)C)C(=O)N[C@@H](CCCCC)C(=O)N2CCC[C@H]2C(=O)N[C@@H](C(C)C)C(=O)N[C@@H](CC(=O)O)C(=O)N[C@H](C(=O)NCC(=O)O)CSCC(=O)N[C@@H](Cc2ccc(C(F)(F)F)cc2)C(=O)N[C@@H](Cc2ccc(O)cc2)C(=O)N[C@@H](CC(=O)O)C1=O [compound 1461] ({CH2CO}-[Phe(4-CF3)]YD[NHexGly]Y[Nle]NRL[Ahp(2)]PVDCG-OH; thioether N-14)
